The values below come from patent US20160362416A1, “ANTIVIRAL COMPOUNDS” (Gilead Sciences, Inc., priority 2012, published 2016).

Assay [1] concerns NS5A chimeric genotype 2a JFH-1 replicon with genotype 2b MD2b-1 strain NS5A gene (M31). The assay can be described thus: HCV genotype 2b NS5A chimeric replicon assay, transient (t). Conditions: Hepatitis C virus, 72 h, read-out: 2b (t) (nM). It counts as cell-based. A digest of the protocol:
(§1)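 EC50 derived by non-linear regression of Renilla luciferase signal measured in lysates 72 h after adding 3-fold serial compound dilutions. Replicons: stable genotype 1b Con1 cells; transient Huh-Lunet transfections of NS5A chimeras—4a ED43 or 3a S52 in Con1, 2b MD2b-1 (M31) in JFH-1.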
(In antiviral work, replicon cells carry a viral genome segment that copies itself.)

Assay [2] deals with stable HCV 1b RLuc replicon cells (genotype 1b Con1 replicon). The assay can be described thus: HCV genotype 1b RLuc replicon reporter assay. It counts as cell-based. Conditions: Hepatitis C virus; stable genotype 1b Con1 RLuc replicon cells, 72 hours. The gist of the method: as §1
The subject of assay [3] is Y93H in genotype 1a NS5A replicon. Kind of assay: Resistance mutant replicon assay, genotype 1a NS5A Y93H. Conditions: Hepatitis C virus, read-out: 1a Y93H (nM). It counts as cell-based, HCV. The gist of the method: (§2)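 Site-directed mutagenesis → mutant Pi-RLuc replicon RNA → transient transfection, cured-51 Huh-7 cells → 3-fold serial cpd dilutions from DMSO stock, 72 h → RLuc read → EC50, non-linear regression.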

Assay [4] relates to L31V/Y93H in genotype 1b NS5A replicon. Kind of assay: Resistance mutant replicon assay, genotype 1b NS5A L31V/Y93H. It counts as cell-based, HCV. Conditions: Hepatitis C virus, read-out: 1b L31V/Y93H (nM). How it is done: (§3) Evaluation of cell-based anti-HCV activity: Antiviral potency (EC50) was determined using a Renilla luciferase (RLuc)-based HCV replicon reporter assay. To perform the assay for genotype 1 and 2a JFH-1, stable HCV 1a RLuc replicon cells (harboring a dicistronic genotype 1a H77 replicon that encodes a RLuc reporter), stable HCV lb RLuc replicon cells (harboring a dicistronic genotype 1b Conl replicon that encodes a RLuc reporter), or stable HCV 2a JFH-1 Rluc replicon cells (harboring a dicistronic genotype 2a JFH-1 replicon that encodes a RLuc reporter; with L31 present in NS5A) were dispensed into 384-well plates for EC50 assays. To perform the assay for genotype 2a (with M31 present in NS5A) or 2b, NS5A chimeric genotype 2a JFH-1 replicons that encodes a RLuc-Neo reporter and either genotype 2a J6 strain NS5A gene or genotype 2b MD2b-1 strain NS5A gene (both with M31 present) respectively, were either transiently transfected (t) into Huh-Lunet cells or were established as stably replicating replicon cells (s) is provided. Either cells were dispensed into 384-well plates for EC50 assays. To perform the assay for genotype 3 and 4, NS5A chimeric genotype 1b Conl replicons that encodes a Pi-RLuc reporter and either genotype 3a S52 strain NS5A gene or genotype 4a ED43 strain NS5A gene respectively, were transiently transfected (t) into Huh-Lunet cells, which were subsequently dispensed into 384-well plates. Compounds were dissolved in DMSO at a concentration of 10 mM and diluted in DMSO either manually or using an automated pipeting instrument. Serially 3-fold diluted compounds were either manually mixed with cell culture media and added to the seeded cells or directly added to the cells using an automated instrument. DMSO was used as a negative (solvent; no inhibition) control, and the protease inhibitor ITMN-191 was included at a concentration >100×EC50 as a positive control. 72 hours later, cells were lysed and Renilla luciferase activity quantified as recommended by the manufacturer (Promega-Madison, Wis.). Non-linear regression was performed to calculate EC50 values.
(§4) To determine the antiviral potency (EC50) against resistance mutants, resistance mutations, including M28T, Q30R, Q30H, Q30E, L31M, Y93C, Y93H, and Y93N in genotype 1a NS5A, Y93H and L31V/Y93H in genotype 1b NS5A, and Y93H for in genotype 3a NS5A, were introduced individually into either 1a Pi-Rluc or 1b Pi-Rluc replicons by site directed mutagenesis. Replicon RNA of each resistant mutant was transiently transfected into Huh-7-derived cured-51 cells and antiviral potency was determined on these transfected cells as described above.

In assay [5] the test system is stable HCV 1a RLuc replicon cells (genotype 1a H77 replicon). The assay can be described thus: HCV genotype 1a RLuc replicon reporter assay. It counts as cell-based. To be noted: Hepatitis C virus; stable genotype 1a H77 RLuc replicon cells, 72 hours.
The subject of assay [6] is NS5A chimeric genotype 1b Con1 replicon with genotype 3a S52 strain NS5A gene. Kind of assay: HCV genotype 3a NS5A chimeric replicon assay. It counts as cell-based. To be noted: Hepatitis C virus, 72 h, read-out: 3a (nM). A digest of the protocol: as §1
The subject of assay [7] is NS5A chimeric genotype 1b Con1 replicon with genotype 4a ED43 strain NS5A gene. Kind of assay: HCV genotype 4a NS5A chimeric replicon assay. To be noted: Hepatitis C virus, 72 h, read-out: 4a (s) (nM). It counts as cell-based.
Assay [8] has as its system stable HCV 2a JFH-1 Rluc replicon cells (L31 present in NS5A). Kind of assay: HCV genotype 2a JFH-1 RLuc replicon reporter assay. Conditions: Hepatitis C virus, 72 h, read-out: 2a JFH (nM). Type of assay: cell-based.
The test system of assay [9] is NS5A chimeric genotype 2a JFH-1 replicon with genotype 2a J6 strain NS5A gene (M31). The assay can be described thus: HCV genotype 2a J6 NS5A chimeric replicon assay, transient (t). Conditions: Hepatitis C virus, 72 h, read-out: 2a J6 (t) (nM). Type of assay: cell-based.
Assay [10] has as its system Q30E in genotype 1a NS5A replicon. The assay can be described thus: Resistance mutant replicon assay, genotype 1a NS5A Q30E. It counts as cell-based, HCV. Conditions: Hepatitis C virus, read-out: 1a Q30E (nM). How it is done: as §3, §4
The subject of assay [11] is Y93N in genotype 1a NS5A replicon. Kind of assay: Resistance mutant replicon assay, genotype 1a NS5A Y93N. It counts as cell-based, HCV. To be noted: Hepatitis C virus, read-out: 1a Y93N (nM). The gist of the method: as §2
In assay [12] the test system is Y93H in genotype 3a NS5A replicon. Kind of assay: Resistance mutant replicon assay, genotype 3a NS5A Y93H. Type of assay: cell-based, HCV. Conditions: Hepatitis C virus, read-out: 3a Y93H (nM). The gist of the method: as §2

Take `CC[C@H]1CC[C@@H](c2nc3ccc4cc5c(cc4c3[nH]2)OCc2cc(-c3cnc([C@@H]4CC[C@H](C)N4C(=O)[C@@H](NC(=O)OC)C(C)C)[nH]3)ccc2-5)N1C(=O)[C@@H](NC(=O)OC)C1C[C@@H](C)O[C@H](C)C1` (stereo partly drawn) [Example AC, Methyl {(1S)-1-[(2R,6R)-2,6-dimethyltetrahydro-2H-pyran-4-yl]-2-[(2S,5S)-2-ethyl-5-(9-{2-[(2S,5S)-1-{(2S)-2-[(methoxycarbonyl)amino]-3-methylbutanoyl}-5-methylpyrrolidin-2-yl]-1H-imidazol-5-yl}-1,11-dihydroisochromeno[4′,3′:6,7]naphtho[1,2-d]imidazol-2-yl)pyrrolidin-1-yl]-2-oxoethyl}carbamate]: the EC50 worked out at 0.02 nM in assay [1]; 0.03 nM in assay [2]; 0.832 nM in assay [3]; 1.33 nM in [4]; 0.025 nM in assay [5]; 0.019 nM in assay [6]. The EC50 in [7] is 0.005 nM; in assay [8], 0.016 nM; in [9], 0.003 nM; in assay [10], 0.312 nM; in [11] it was 1.63 nM; in assay [12] it was 14.5 nM.

Take `CC[C@H]1C[C@@H](c2nc3ccc4cc5c(cc4c3[nH]2)OCc2cc(-c3cnc([C@@H]4CC[C@H](C)N4C(=O)[C@@H](NC(=O)OC)C(C)C)[nH]3)ccc2-5)N(C(=O)[C@@H](NC(=O)OC)C2C[C@@H](C)O[C@H](C)C2)C1` (stereo partly drawn) [Example AF, Methyl [(1S)-1-[(2R,6R)-2,6-dimethyltetrahydro-2H-pyran-4-yl]-2-{(2S,4S)-4-ethyl-2-[9-(2-{(2S,5S)-1-[N-(methoxycarbonyl)-L-valyl]-5-methylpyrrolidin-2-yl}-1H-imidazol-5-yl)-1,11-dihydroisochromeno[4′,3′:6,7]naphtho[1,2-d]imidazol-2-yl]pyrrolidin-1-yl}-2-oxoethyl]carbamate]: the EC50 in [1] is 0.014 nM; in assay [2] it was 0.037 nM; in [3] it was 0.268 nM; in assay [4] it was 0.18 nM; in [5] it was 0.022 nM; in assay [6] it was 0.016 nM. Further, the EC50 in assay [7] was 0.005 nM; in [8], 0.012 nM; in [9], 0.003 nM; in assay [10] it was 0.097 nM; in assay [11], 0.899 nM; in [12], 4.59 nM.
